Measurements from patent US9856511B2, “Protease deubiquitinating inhibitor screening” (priority 2011, dated 2018).

Key:
UCHL5 = molecular target: T1, UCHL5 (Homo sapiens, UniProt Q9Y5K5); assay: HA-UbVS competitive active-site labelling of 19S RP or 26S proteasomes; type: binding; conditions: 19S RP or 26S proteasomes incubated with b-AP15
T1 construct: purchased Boston Biochem E-366 (19S), E-365 (26S)
Excerpt: (§1) The deubiquitinating activity of the proteasome is attributed to the action of three DUBs, UCHL5, USP14 and POH1, all localized within the 19S RP 26-28. Both UCHL5 and USP14 are sensitive to N-ethylmaleimide (NEM), a general inhibitor of cysteine proteases, whereas POH1 is insensitive to inhibition by NEM but sensitive to metal chelators such as N,N,N,N-tetrakis-(2-pyridylmethyl)ethylenediamine (TPEN) (29). […] To identify specifically which DUBs were inhibited by b-AP15 treatment, competitive labelling experiments were performed using hemagglutinin tagged ubiquitin vinylsulphonone (HA-UbVS), an active site directed probe that irreversibly reacts with DUBs of the cysteine class (26).
(§2) For labelling of DUBs in cell lysates sub confluent cells were harvested by trypsinization, washed three times with PBS, and centrifuged at 1500 RPM for 5 min. Cell pellets were lysed with buffer (50 mM HEPES pH 7.4, 250 mM sucrose, 10 mM MgCl2, 2 mM ATP, 1 mM DTT) on ice for 15 min. Debris was removed by centrifugation and 25 μg of protein was labelled with 1 μM HA-UbVS for 30 min at 37° C. Samples were resolved by SDS-PAGE and analyzed by immunoblotting with indicated antibodies.
(§3) 19S RP were pre-treated with DMSO, NEM (10 mM) b-AP15 (50 μM) (FIG. 3a) or TPEN (250 μM) (FIG. 3b) followed by addition of Ub-GFP and immunoblotting with anti-GFP antibodies. […]

USP14 = molecular target: T2, USP14 (Homo sapiens, UniProt P54578); assay: as above; type: binding; conditions: 19S RP or 26S proteasomes incubated with b-AP15
T2 construct: purchased Boston Biochem E-366 (19S), E-365 (26S)
Excerpt: as §1, §2, §3

[1] = system: cellular DUB activity (HCT-116 cells); assay: Cellular DUB activity, Ub-AMC cleavage in lysates of treated cells; type: cell-based; conditions: b-AP15 treated cells
Excerpt: b-AP15 comprises an α-β dienone entity with two sterically accessible β carbons. A structurally similar pharmacophore has been earlier described to be comprised by a class of ubiquitin isopeptidase inhibitors (21). […] In the opinion of the present inventors the similarities in pharmacophore structure and the data showing that b-AP15 inhibits proteasome activity independent of the 20S CP indicate that b-AP15 represents a novel class of proteasome inhibitors that block the deubiquitinating activity of the 19S RP.
HTC-116 cells were treated for 3 h with b-AP15 (1 μM) (FIG. 10). Lysates treated with 10 mM N-ethylmaleimide (NEM) were included as a control for total DUB inhibition. DUB activity was determined from cell lysates by measuring cleavage of the fluorogenic substrate ubiquitin-7-amido-4-methylcoumarin (Ub-AMC).

In the case of `C=CC(=O)N1C/C(=C\c2ccc([N+](=O)[O-])cc2)C(=O)/C(=C/c2ccc([N+](=O)[O-])cc2)C1` [b-AP15], the “Ub-VS labelling of UCHL5” value (UCHL5) is reported as “abolished Ub-VS labelling”, the “Ub-VS labelling of USP14” value (USP14) is reported as “abolished Ub-VS labelling” and the “cellular DUB activity (Ub-AMC cleavage)” value [1] is reported as “no reduction in Ub-AMC cleavage”.
